# Assay results published in US20260273074A1, “FERRITIN-TARGETING PROTACS AND METHODS OF INDUCING PYROPTOSIS” (Wisconsin Alumni Research Foundation, priority 2023, published 2026).
# Where a SMILES comes first, the peptide text is derived from it. The star is where a group is joined. Cbz = O=C(OCc1ccccc1)*; CH2F = FC*
# Columns and labels:
# [1] = system: B16F10 cells; assay: Cell viability evaluation by CCK-8 assay; conditions: B16F10 cells, DeFer-2 5 μM; DFOM 25 μM, Z-VAD 10 μM, NSCI 0.1 μM, VX-765 10 μM
# Procedure: Cell viability evaluation: The cell viability of B16F10 cells treated with ferritin degraders with or without various inhibitors was evaluated by CCK-8 assay. Briefly, 5×10^3 cells were seeded in 96-well plates and cultured for 24 h for attachment. Then the medium in the corresponding wells, except the control, was replaced with 100 μL of medium containing the indicated degrader formulations with concentrations of 0.008, 0.04, 0.2, 1, and 5 μM. After incubation for 24 or 48 h, CCK-8 reagent was added and interacted with cells at 37° C. for 1 h. The absorbance was measured by a microplate reader (Infinite M Plex) at the detection wavelength of 450 nm.
# For blocking assays with Z-VAD, NSCI, and VX-765, 5×10^3 cells were seeded in 96-well plates and cultured 24 h for attachment. Then the medium in the corresponding wells, except the control, was replaced with 100 μL of medium containing Z-VAD (10 μM), NSCI (0.1 μM), or VX-765 (10 μM). […] Following another 24-h incubation, CCK-8 reagents were added and interacted with cells at 37° C. for 1 h. The absorbance was measured by a microplate reader (Infinite® M Plex) at the detection wavelength of 450 nm. For blocking assays with DFOM, 5×10^3 cells were seeded in 96-well plates and cultured 24 h for attachment. […] Following another 20-h incubation, CCK-8 reagents were added and interacted with cells at 37° C. for 1 h. The absorbance was measured by a microplate reader (Infinite® M Plex) at the detection wavelength of 450 nm.
# [2] = target: T1, apoferritin from equine spleen (Equus caballus, UniProt P02791); assay: Isothermal titration calorimetry (ITC) binding to ferritin
# T1 construct: the apoferritin from equine spleen (A3660, Sigma-Aldrich) that is not combined with iron was used; purchased Sigma-Aldrich A3660; host or cells: equine spleen (tissue-derived)
# T1 sequence (P02791 2-175 limits assumed): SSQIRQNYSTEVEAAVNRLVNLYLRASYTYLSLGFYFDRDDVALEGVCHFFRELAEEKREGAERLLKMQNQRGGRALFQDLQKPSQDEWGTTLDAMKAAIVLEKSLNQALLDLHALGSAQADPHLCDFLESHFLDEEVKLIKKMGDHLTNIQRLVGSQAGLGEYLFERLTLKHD
# Procedure: As for the ferritin proteins, the apoferritin from equine spleen (A3660, Sigma-Aldrich) that is not combined with iron was used. Before the ITC test, 1 mL of apoferritin in glycerol solution (50% glycerol and 0.075 M NaCl) was placed in a dialysis bag with a molecular weight cut-off of 3 kDa. The dialysis bags were then immersed in the prepared solution (20 mM Tris-HCl, pH 8.5, and 130 mM NaCl) and stirred at room temperature. The dialysis buffer was changed every 24 h for three times, and the last buffer was collected and 0.05% DMSO was added to serve as the ITC buffer. As for the oleic acid, 12 μM apoferritin in the ITC buffer was placed in the ITC cell, and the syringe was full of 250 μM oleic acid in the same ITC buffer. Besides the first injection with 5 μL of the oleic acid solution, 18 aliquots with 10 μL of the oleic acid solution were titrated into the apoferritin solution with a time interval of 300 s. […] Besides the first injection with 1 μL of the apoferritin solution, 25 aliquots were titrated with a time interval of 300 s. Raw data were corrected for control titrations (the solution in the syringe into the blank ITC buffer in the cell) and integrated using Origin 7.0 (MicroCal). Binding kinetics parameters, including N, Kd, ΔH, and ΔS, were calculated using a single-class binding site model.
# [3] = system: cleaved caspase 3; assay: Western blot of cleaved caspase 3 in B16F10 cells; type: cell-based, murine; conditions: GSH pretreatment 4 h
# Procedure: (§1) As for the determination of cleaved-GSDME and cleaved-caspase-3, B16F10 cells were seeded in 6-well culture plates (2×10^5 cells per well) and cultured for 24 h. Then the medium in the corresponding wells except the negative control was replaced with 1 mL of medium containing ferritin degraders, albumin nanoparticles, or the degrader with inhibitors at the indicated concentrations. Incubation for another 6 or 8 h was used to test the cleaved-caspase-3, while treatment for another 16 or 20 h was used to test cleaved-GSDME. The following procedures were the same as mentioned above.
# [4] = system: GSDME-N; assay: Western blot of cleaved N-terminal GSDME (GSDME-N) in B16F10 cells; type: cell-based, murine; conditions: GSH pretreatment 4 h
# Procedure: as §1
# [5] = system: T2, ferritin (Mus musculus); assay: Western blot of ferritin expression (ferritin degradation) in B16F10 cells; type: cell-based, murine; conditions: Epox 1 μM pretreatment 1 h; for effect on DeFer-2-mediated ferritin degradation: DeFer-2 0.5 μM 12 h, VHL ligand 50 μM in excess
# T2 construct: ferritin expression levels in B16F10 cells were evaluated; endogenous in cells; host or cells: B16F10 (murine melanoma)
# Procedure: Western blot analysis: After various treatments, ferritin expression levels in B16F10 cells were evaluated to investigate the DeFer-2-mediated ferritin degradation. Briefly, B16F10 cells were seeded in 6-well culture plates (5×10^4 cells per well) and cultured for 24 h. Then the medium in the corresponding wells except the negative control was replaced with 1 mL of medium containing ferritin degraders, albumin nanoparticles, the epimer formulations, the combination of VHL ligand and oleic acid, or the combination of the degrader and VHL ligand at the indicated concentrations. […] The lysates were centrifuged at 12,000 rpm for 10 min at 4° C., followed by quantification of the total proteins in the supernatant through the bicinchoninic acid assay (BCA) assay. Afterward, the proteins in the supernatant were mixed with the loading buffer and heated at 95° C. for 15 min. Equal amounts of proteins from different samples were loaded into 15% SDS-polyacrylamide gel (20 μg protein per lane) to separate target proteins. After separation, proteins were transferred to polyvinylidene fluoride (PVDF) membranes before the membranes were blocked with 5% nonfat milk in PBST. Then proteins were incubated with primary antibodies overnight at 4° C., followed by the incubation with the goat-anti-rabbit IgG H&L (HRP) secondary antibodies at room temperature for 2 h. Finally, the bands were detected with electrochemiluminescence (ECL) western blot substrate for imaging, and ImageJ software was used for quantification.
# [6] = system: B16F10 cells; assay: LDH release assay; type: cell-based, murine; conditions: inhibitor pretreatment 4 h, DeFer-2 5 μM, NSCI 0.1 μM, VX-765 10 μM
# Procedure: After incubation for 24 h, the cell samples were used to measure LDH release according to the manufacturer's instructions of CytoScan™ LDH Cytotoxicity Assay kit from G-Biosciences (St. Louis, MO, USA).
# Following another 24-h incubation, the cell samples were used to measure LDH release according to the manufacturer's instructions of CytoScan™ LDH Cytotoxicity Assay kit from G-Biosciences (St. Louis, MO, USA).
smiles,measurement,setting,value
"COC(=O)C[C@H](NC(=O)[C@H](C)NC(=O)[C@@H](NC(=O)OCc1ccccc1)C(C)C)C(=O)CF [Z-VAD, Z-VAD(OMe)-FMK, reference compound] (Cbz-Val-Ala-Asp(OMe)-CH2F)",effect on DeFer-2-induced cytotoxicity / cell death,[1],compromised
"CCCCCCCC/C=C\CCCCCCCC(=O)O [OA, oleic acid, reference compound]",Kd,[2],12.8 ± 2.89 µM
"N[C@@H](CCC(=O)N[C@@H](CS)C(=O)NCC(=O)O)C(=O)O [GSH, glutathione, reference compound]",effect of pretreatment on DeFer-2-caused caspase 3 activation,[3],substantially reduced activated caspase 3
same,effect of pretreatment on DeFer-2-caused GSDME-N generation,[4],compromised by GSH pretreatment
"CC[C@H](C)[C@H](NC(=O)[C@H]([C@@H](C)CC)N(C)C(C)=O)C(=O)N[C@H](C(=O)N[C@@H](CC(C)C)C(=O)[C@@]1(C)CO1)[C@@H](C)O [Epox, epoxomicin, reference compound]",effect on aDeFer-2-mediated ferritin degradation,"[5]; B16F10 cells, 0.5 μM, 12 h",compromised the aDeFer-2-mediated ferritin degradation
same,effect on DeFer-2-mediated ferritin degradation,[5],inhibited
"CCO[C@@H]1OC(=O)C[C@@H]1NC(=O)[C@@H]1CCCN1C(=O)[C@@H](NC(=O)c1ccc(N)c(Cl)c1)C(C)(C)C [VX-765, reference compound]",effect on DeFer-2-induced cytotoxicity / cell death,[1],remained unchanged
same,effect on LDH release caused by DeFer-2,[6],barely affected
"Cc1ncsc1-c1ccc(CNC(=O)[C@@H]2C[C@@H](O)CN2C(=O)[C@@H](N)C(C)(C)C)cc1.Cl [VHL ligand, (2S,4R)-1-((S)-2-amino-3,3-dimethylbutanoyl)-4-hydroxy-N-(4-(4-methylthiazol-5-yl)benzyl) pyrrolidine-2-carboxamide hydrochloride, reference compound]",effect on DeFer-2-mediated ferritin degradation,[5],compromised
